Assay results reported in patent publication US20240398737A1, “FUNCTIONALIZED LONG-CHAIN HYDROCARBON MONO- AND DI-CARBOXYLIC ACIDS AND DERIVATIVES THEREOF, AND THEIR USE FOR THE PREVENTION OR TREATMENT OF DISEASE” (Espervita Therapeutics, Inc., priority 2021, published 2024).
“Also recorded” adds a separate entry of the source.

Tests used:
PIM3 = PIM3 (Homo sapiens (Human), UniProt Q86V86); assay: Wild type kinase screen: PIM3; type: biochemical; details: compound at 10 μM, 10 μM ATP, Data 1 and Data 2 duplicates
ERK7/MAPK15 = ERK7/MAPK15 (Homo sapiens (Human), UniProt Q8TD08); assay: Wild type kinase screen: ERK7/MAPK15; type: biochemical; details: compound at 10 μM, 10 μM ATP, Data 1 and Data 2 duplicates
c-Kit = c-Kit (Homo sapiens (Human), UniProt P10721); assay: Wild type kinase screen: c-Kit; type: biochemical; details: compound at 10 μM, 10 μM ATP, Data 1 and Data 2 duplicates
human ACLY = human ACLY (Homo sapiens (Human), UniProt P53396); assay: ATP-citrate lyase (ACLY) enzymatic assay (ADP-Glo); type: biochemical; design: key to Compound IC50 (M) ACLY: *: No detectable inhibition or compound activity; details: recombinant human ACLY; 10 concentrations from 300 μM; Runs 1-3
Description: ATP citrate lyase was obtained from Sino Biological Inc. Cat #11769-H07B, Lot #LC08DE1701. It was prepared from a DNA sequence encoding the human ACLY (P53396) (Met 1-Met 1101) expressed in Baculovirus-Insect Cells, with a polyhistidine tag at the N-terminus. The recombinant human ACLY consists of 1120 amino acids and has a calculated molecular mass of 123 kDa. It migrates as an approximately 110 kDa band in SDS-PAGE under reducing conditions. The enzyme came as a lyophilized powder in sterile 20 mM Tris, 500 mM NaCl, pH 8.0, 10% glycine. Normally 5%-8% trehalose and mannitol are added as protectants before lyophilization. The recombinant human ACLY from Sino Biological was formulated in 45 mM Tris-HCl, pH 8.0, 124 mM NaCl, 2.4 mM KCl, 18 mM glutathione, 10% glycerol, and 3 mM DTT.
To detect ADP produced from ACL assay, the ADP-Glo™ assay format from Promega, Madison, WI, was used, to detect the conversion of ATP to ADP. […] This assay is performed in two steps: i) after the ACL-mediated enzymatic reaction that utilizes ATP and produces ADP, ADP-Glo™ Reagent is added to terminate the kinase reaction and deplete the remaining ATP, and ii) the Kinase Detection Reagent is added to convert ADP to ATP and allow the newly synthesized ATP to be measured using a luciferase/luciferin reaction. The light generated, measured in a luminometer, correlates to the amount of ADP generated in the ACL assay, which is indicative of ACL activity.
Data represent nM or μM ADP produced, % Activity (relative to no inhibitor controls), and curve fits were performed by GraphPad Prism software. The IC50 concentration-response curves were generated for ADPGlo™ using recombinant human ACL from Sino Biologicals Inc.

[1] = tested on: human hematopoietic stem and progenitor cells; assay: Megakaryopoiesis and platelet production in cultured human hematopoietic stem and progenitor cells; type: cell-based; details: for Inhibition of megakaryocyte/platelet parameters after addition on day 6 of culture: 30 μM added on day 6; for Inhibition of megakaryopoiesis or platelet production (overall): 30 μM, cultured human HSPC; for CD41a+ mean fluorescence intensity (MFI), normalized / Normalized cell size (CD41a+) / CD41a CD42b+ counts (mature megakaryocytes), normalized to reference media control / CD41a+ cells (megakaryocytes), normalized to reference media control / Platelet counts, normalized to reference media control: added day 0, 8 days culture, I-32 and I-1 30 μM, ABT-737 6 μmol; for CD41a CD42b+ counts (mature megakaryocytes), normalized to reference media control / CD41a+ cells (megakaryocytes), normalized to reference media control / Platelet counts, normalized to reference media control: average±SD
Description: Materials and Methods. Hematopoietic stem and progenitor cells, identified as viable CD45+ CD34+ cells, were isolated from peripheral blood of healthy donors by a method known in the art (see Ivetic N, Nazi I, Karim N et al. Producing megakaryocytes from a human peripheral blood source. Transfusion 2016; 56:1066-74). These isolated cells were then analyzed for purity before being expanded for four days using a commercial supplement to increase their cell population. After expansion, the cells were analyzed for purity, washed, and stimulated with a saturating concentration of thrombopoietin (20 ng/mL) and stem cell factor (50 ng/mL) to begin megakaryopoiesis. Compound I-32 and Compound I-1 were added at this timepoint at a concentration of 30 μM. The cells were then cultured for 8 days to develop into megakaryocytes and analyzed via flow cytometry to assess their number, maturity, and platelet count as defined by CD41a, CD42b and Calcein-AM expression. In addition, Compound I-32 and Compound I-1 were added to cells during the later stages of development (day 6) to assess their impact on maturation. ABT-737 (6 μmol) was used as a positive control and a DMSO vehicle control (<0.15% v/v) was the negative control. All counts are normalized to a media control (PBS) as a reference for basic cell growth.
Statistical analysis. Statistical analyses were carried out by comparing effects on measured parameters in comparison to vehicle control. A value of […] (One-way ANOVA multiple comparisons) was considered as significant.
Two isolations were performed from two healthy donors (2 males) and used to assess the impacts of Compound I-32 and Compound I-1. For one of the isolations, enough expanded hematopoietic stem and progenitor cells (HSPC) (Experiment 1) were obtained so that the addition of the compounds on day 6 was also performed along with the initial experiment. For the other experiment (Experiment 2) only an 8-day incubation was performed.
All results were normalized to a reference media (PBS) and Compound I-32 and Compound I-1 were compared to a vehicle control. Reference compound ABT-737 is a known BCL-2 inhibitor and was used a positive control. Results in FIGS. 25A-25J are the summary of a single experiments conducted in triplicates. No statistical inhibition was detected for Compound I-32 or Compound I-1 (p>0.05 one-way ANOVA).

MELK = MELK (Homo sapiens (Human), UniProt Q14680); assay: Wild type kinase screen: MELK; type: biochemical; details: compound at 10 μM, 10 μM ATP, Data 1 and Data 2 duplicates
Chain of MELK (Q14680 whole entry, species assumed): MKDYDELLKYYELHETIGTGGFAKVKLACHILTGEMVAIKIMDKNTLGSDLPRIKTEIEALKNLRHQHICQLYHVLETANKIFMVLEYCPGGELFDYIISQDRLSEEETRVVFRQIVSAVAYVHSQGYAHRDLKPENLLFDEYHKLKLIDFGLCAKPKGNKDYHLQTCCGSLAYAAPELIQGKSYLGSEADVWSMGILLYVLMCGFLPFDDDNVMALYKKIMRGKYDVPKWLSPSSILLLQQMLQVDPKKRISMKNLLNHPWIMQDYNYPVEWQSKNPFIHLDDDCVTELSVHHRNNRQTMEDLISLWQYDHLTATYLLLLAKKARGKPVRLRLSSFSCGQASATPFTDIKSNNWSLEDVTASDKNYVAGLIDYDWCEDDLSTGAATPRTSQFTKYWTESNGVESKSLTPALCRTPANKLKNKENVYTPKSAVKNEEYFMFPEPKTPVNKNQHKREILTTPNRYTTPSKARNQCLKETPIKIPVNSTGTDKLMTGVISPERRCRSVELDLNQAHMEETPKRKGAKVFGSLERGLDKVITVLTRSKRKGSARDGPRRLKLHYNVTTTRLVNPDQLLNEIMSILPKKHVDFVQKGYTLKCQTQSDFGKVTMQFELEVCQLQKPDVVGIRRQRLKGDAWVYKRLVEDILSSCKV

Chain of human ACLY (P53396 whole entry): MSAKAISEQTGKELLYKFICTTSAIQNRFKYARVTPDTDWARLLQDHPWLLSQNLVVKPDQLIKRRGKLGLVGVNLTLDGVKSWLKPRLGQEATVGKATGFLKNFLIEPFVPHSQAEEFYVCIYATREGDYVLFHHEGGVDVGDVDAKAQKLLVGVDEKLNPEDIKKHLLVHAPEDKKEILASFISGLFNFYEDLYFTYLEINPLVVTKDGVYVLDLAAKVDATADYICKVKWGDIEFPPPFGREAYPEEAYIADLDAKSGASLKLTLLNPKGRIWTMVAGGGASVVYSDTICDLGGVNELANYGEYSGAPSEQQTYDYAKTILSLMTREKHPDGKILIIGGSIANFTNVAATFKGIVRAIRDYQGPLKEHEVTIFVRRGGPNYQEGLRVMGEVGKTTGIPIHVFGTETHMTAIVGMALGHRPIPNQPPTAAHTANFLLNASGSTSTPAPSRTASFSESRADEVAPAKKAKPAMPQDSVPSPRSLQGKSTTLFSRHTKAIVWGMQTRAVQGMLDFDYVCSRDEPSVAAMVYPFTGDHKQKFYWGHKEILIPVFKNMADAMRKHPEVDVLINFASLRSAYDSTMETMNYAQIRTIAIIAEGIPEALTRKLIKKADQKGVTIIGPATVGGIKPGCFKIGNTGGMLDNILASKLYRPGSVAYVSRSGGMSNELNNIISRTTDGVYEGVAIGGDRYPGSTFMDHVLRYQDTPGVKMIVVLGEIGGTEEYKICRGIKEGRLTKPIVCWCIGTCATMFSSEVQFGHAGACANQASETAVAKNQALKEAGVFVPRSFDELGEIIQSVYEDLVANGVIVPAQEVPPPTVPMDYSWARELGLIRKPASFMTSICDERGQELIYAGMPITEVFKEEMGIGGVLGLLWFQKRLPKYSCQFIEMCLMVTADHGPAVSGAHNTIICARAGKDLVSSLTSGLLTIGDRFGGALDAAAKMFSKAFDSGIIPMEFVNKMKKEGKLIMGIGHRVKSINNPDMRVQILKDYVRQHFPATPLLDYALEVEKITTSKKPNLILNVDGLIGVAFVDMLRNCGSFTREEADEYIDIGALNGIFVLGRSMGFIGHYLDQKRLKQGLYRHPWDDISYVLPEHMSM
Chain of c-Kit (P10721 26-976): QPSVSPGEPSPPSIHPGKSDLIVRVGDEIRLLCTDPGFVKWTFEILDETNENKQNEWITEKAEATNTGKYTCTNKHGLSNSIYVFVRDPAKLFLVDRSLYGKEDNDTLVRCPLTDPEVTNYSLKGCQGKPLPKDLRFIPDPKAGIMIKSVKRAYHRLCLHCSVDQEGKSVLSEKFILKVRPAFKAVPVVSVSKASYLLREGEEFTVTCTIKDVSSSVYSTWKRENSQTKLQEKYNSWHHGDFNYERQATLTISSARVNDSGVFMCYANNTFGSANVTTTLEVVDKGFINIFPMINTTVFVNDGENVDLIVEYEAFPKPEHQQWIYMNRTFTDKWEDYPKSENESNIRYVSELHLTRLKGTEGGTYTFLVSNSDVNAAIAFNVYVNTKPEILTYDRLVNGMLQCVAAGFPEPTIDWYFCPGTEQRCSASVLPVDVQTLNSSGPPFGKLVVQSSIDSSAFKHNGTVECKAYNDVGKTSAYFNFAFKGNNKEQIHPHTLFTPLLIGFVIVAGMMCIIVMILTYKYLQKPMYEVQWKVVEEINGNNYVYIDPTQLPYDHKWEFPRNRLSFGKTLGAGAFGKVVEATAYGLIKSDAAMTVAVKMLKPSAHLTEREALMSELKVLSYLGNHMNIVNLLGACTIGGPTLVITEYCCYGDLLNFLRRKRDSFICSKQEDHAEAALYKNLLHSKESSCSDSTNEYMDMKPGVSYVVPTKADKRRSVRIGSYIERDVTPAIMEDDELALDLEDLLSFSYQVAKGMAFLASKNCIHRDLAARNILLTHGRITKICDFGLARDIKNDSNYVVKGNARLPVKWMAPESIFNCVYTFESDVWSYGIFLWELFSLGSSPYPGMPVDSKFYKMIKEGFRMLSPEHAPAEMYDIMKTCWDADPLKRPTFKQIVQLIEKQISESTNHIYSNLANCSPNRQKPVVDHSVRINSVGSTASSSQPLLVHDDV
Chain of ERK7/MAPK15 (Q8TD08 whole entry): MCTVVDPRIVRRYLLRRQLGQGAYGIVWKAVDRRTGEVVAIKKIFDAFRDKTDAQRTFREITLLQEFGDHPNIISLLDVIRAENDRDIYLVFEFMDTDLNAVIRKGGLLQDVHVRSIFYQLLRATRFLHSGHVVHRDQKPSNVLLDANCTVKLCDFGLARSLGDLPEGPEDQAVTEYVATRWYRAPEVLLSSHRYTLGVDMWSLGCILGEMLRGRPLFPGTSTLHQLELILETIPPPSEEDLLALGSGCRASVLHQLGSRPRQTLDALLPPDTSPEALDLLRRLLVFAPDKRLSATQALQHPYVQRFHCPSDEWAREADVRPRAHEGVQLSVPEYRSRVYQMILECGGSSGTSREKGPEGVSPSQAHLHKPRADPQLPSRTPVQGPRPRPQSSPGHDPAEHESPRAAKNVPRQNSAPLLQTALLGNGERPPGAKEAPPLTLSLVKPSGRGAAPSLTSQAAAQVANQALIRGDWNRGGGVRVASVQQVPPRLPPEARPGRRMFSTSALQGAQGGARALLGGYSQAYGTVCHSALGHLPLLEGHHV

Compound	% Enzyme Activity (relative to DMSO controls) (PIM3)	% Enzyme Activity (relative to DMSO controls) (ERK7/MAPK15)	% Enzyme Activity (relative to DMSO controls) (c-Kit)	Compound IC50 (M) ACLY (human ACLY)	Inhibition of megakaryocyte/platelet parameters after addition on day 6 of culture [1]	Inhibition of megakaryopoiesis or platelet production (overall) [1]	CD41a+ mean fluorescence intensity (MFI), normalized [1]	Normalized cell size (CD41a+) [1]	CD41a CD42b+ counts (mature megakaryocytes), normalized to reference media control [1]	CD41a+ cells (megakaryocytes), normalized to reference media control [1]	Platelet counts, normalized to reference media control [1]	% Enzyme Activity (relative to DMSO controls) (MELK)
CC(C)(CCCCc1cccc(CCCCC(C)(C)C(=O)O)c1)C(=O)O [Compound I-32, 6-[3-(5-carboxy-5-methylhexyl)-phenyl]-2,2-dimethylhexanoic acid]	86.73%	102.21%	71.52%	*	no inhibition detected	do not significantly affect; also recorded: do not inhibit	110±11%	94±3%	106±17%	98±3%	134±34%	110.73%
CC(C)(CCCCc1ccc(CCCCC(C)(C)C(=O)O)cc1)C(=O)O [Compound I-1, 6-[4-(5-carboxy-5-methylhexyl)-phenyl]-2,2-dimethylhexanoic acid]	83%	100.06%	81.06%	*	no inhibition detected	do not significantly affect; also recorded: do not inhibit	109±10%	98±3%	97±9%	94±2%	94±12%	106.55%
